{
  "source": "patent US9110063B2",
  "about": "“Assay methods for the determination of FKBPL expression level in the context of breast cancer” (The Queen's University of Belfast, priority 2009, dated 2015)",
  "key": {"MCF7 cells [1]": {"system": "MCF7 cells", "experiment": "Clonogenic assay, FKBPL-overexpressing MCF7 clones versus parental controls", "assay_type": "cell-based", "conditions": "16 days, colony count", "protocol": "Cells were plated at a density of 500 and 1000 cells/well in a 6-well plate containing DMEM+10% FCS and incubated at 37° C. for 24 h. […] In both experiments, colonies were fixed and stained with 0.4% Crystal Violet/70% methanol then counted."}, "MCF7 cells [2]": {"system": "MCF7 cells", "experiment": "Clonogenic assay after FKBPL siRNA knockdown versus non-targeting control", "assay_type": "cell-based", "conditions": "16 days, versus non-targeting siRNA controls", "protocol": "MCF7 cells were transfected with siControl non-targeting siRNA #1 (Dharmacon, Cat no. D-001210-01-20) or FKBPL targeted siRNA (Ambion, Cat no. 16104). Briefly, 1×10^5 MCF7 cells were seeded into 35 mm dishes and incubated at 37° C. for 24 h. To transfect, in one tube 6.4 μl of either siControl non-targeting siRNA or FKBPL targeted siRNA (2 μM) was added to 160 μl OptiMEM (Invitrogen) and in another tube 4 μl Oligofectamine (Invitrogen, Cat no. 12252-011) was added to 30 μl OptiMEM. Both tubes were incubated at room temperature for 5 min. Both tube contents were mixed and incubated at room temperature for 20 min. During incubation, 800 μl prewarmed complete DMEM was added to the cells then 200 μl transfection mix was added dropwise and the dishes incubated at 37° C. for 72 h. Cells were then plated at a density of 1000 and 2000 cells/well in a 6-well plate containing DMEM+10% FCS and incubated at 37° C. for 24 h. […] In both experiments, colonies were fixed and stained with 0.4% Crystal Violet/70% methanol then counted."}, "MCF7 parental cells": {"system": "MCF7 parental cells", "experiment": "Western blot of FKBPL and ER protein after 17-β-estradiol", "assay_type": "cell-based", "conditions": "10^−8M, 24 h, versus DMSO vehicle", "protocol": "To determine whether FKBPL itself could be regulated by oestrogen, 2×10^5 MCF7 parental cells were seeded into 35 mm dishes with phenol red-free DMEM+10% charcoal stripped FCS and incubated at 37° C. for 24 h. The medium was replaced with phenol red-free DMEM+10% charcoal-stripped FCS containing DMSO as vehicle control or 10^−8M 17-β-estradiol (Sigma, Cat no. E2758) and incubated for 24 h. Cells were lysed in 250 μl 2× laemmli buffer (Sigma) and subjected to SDS-PAGE electrophoresis using the XCell Surelock Mini-cell system (Invitrogen), transferred onto nitrocellulose membranes, blocked for 1 h at room temperature with 1% skim milk blocking solution and probed with FKBPL rabbit polyclonal (ProteinTech, Cat no. 10060-1-AP) at a dilution of 1:2000, ER rabbit monoclonal (Millipore, Cat no. 07-662) at a dilution of 1:1000 and GAPDH rabbit monoclonal (Sigma, Cat no. G9545) at a dilution of 1:5000. The blot was then probed with corresponding anti-rabbit IgG HRP-linked whole antibody secondary (GE Healthcare, Cat no. NA934V) or anti-mouse IgG HRP-linked whole antibody secondary (GE Healthcare, Cat no. NA931V) at a dilution of 1:10000. Antibody binding was detected using Supersignal West Pico Chemiluminescent Substrate (Pierce, Cat no. 34080)."}, "[3]": {"system": "oestrogen receptor positive (ER+) patients", "conditions": "cited from earlier work"}},
  "data": [
    {"smiles": "C[C@]12CC[C@@H]3c4ccc(O)cc4C[C@@H](CCCCCCCCC[S+]([O-])CCCC(F)(F)C(F)(F)F)[C@H]3[C@@H]1CC[C@@H]2O", "note": "(some centres unmarked) [fulvestrant, Fulvestrant]", "values": [
      {"measurement": "FKBPL-overexpressing clones more sensitive than parental controls", "setting": "MCF7 cells [1]; 2.5 nM fulvestrant", "value": "up to 99%"},
      {"measurement": "Resistance of MCF-7 cells after FKBPL knock-down", "setting": "MCF7 cells [2]; 2.5 nM fulvestrant", "value": "dramatically increased the resistance"}
    ]},
    {"smiles": "C[C@]12CC[C@@H]3c4ccc(O)cc4CC[C@H]3[C@@H]1CC[C@@H]2O", "note": "[17-β-estradiol]", "values": [
      {"measurement": "ER levels", "setting": "MCF7 parental cells", "value": "decrease"},
      {"measurement": "FKBPL protein expression", "setting": "MCF7 parental cells", "value": "upregulated"}
    ]},
    {"smiles": "CC/C(=C(\\c1ccccc1)c1ccc(OCCN(C)C)cc1)c1ccccc1", "note": "[tamoxifen, Tamoxifen]", "values": [
      {"measurement": "FKBPL-overexpressing cells more sensitive than parental controls", "setting": "MCF7 cells [1]; 1 μM tamoxifen", "value": "up to 90%"},
      {"measurement": "Resistance of MCF-7 cells after FKBPL knock-down", "setting": "MCF7 cells [2]; 1 μM tamoxifen", "value": "dramatically increased the resistance"},
      {"measurement": "ER+ patients showing a response", "setting": "[3]; ER+ breast cancer patients", "value": "around 60%"},
      {"measurement": "ER+ tumours failing to respond to or developing resistance", "setting": "[3]; ER+ tumours (non-responder subjects)", "value": "up to 40%"}
    ]}
  ]
}
